Laboratory results from ChEMBL document CHEMBL5331067, “Disubstituted pyrimidine-5-carboxamide derivatives as novel HIV-1 NNRTIs: Crystallographic overlay-based molecular design, synthesis, and biological evaluation” (Eur J Med Chem, 2023).

Legend:
[1] = tested on: Human immunodeficiency virus 1; test: Antiviral activity against HIV-1 IIIB infected in human MT4 cells assessed as reduction in virus induced cytopathic effect incubated for 5 days by MTT assay; type: functional, organism-based; conditions: Human immunodeficiency virus 1, IIIB, MT4, 120 h
[2] = tested on: Human immunodeficiency virus 1; test: Antiviral activity against HIV-1 RES056 infected in human MT4 cells assessed as reduction in virus induced cytopathic effect incubated for 5 days by MTT assay; type: functional, organism-based; conditions: Human immunodeficiency virus 1, RES056, MT4, 120 h
[3] = Cytotoxicity against human MT4 cells assessed as cell growth inhibition incubated for 5 days by MTT assay; type: toxicity, cell-based; conditions: time 5 day
[4] = Selectivity index, ratio of CC50 for cytotoxicity against human MT4 cells assessed as reduction in cell viability to EC50 for antiviral activity against HIV-1 IIIB infected in human MT4 cells assessed as reduction in virus induced cytopathic effect; type: toxicity, cell-based; conditions: read-out: Ratio CC50/EC50
[5] = tested on: Human immunodeficiency virus 1; test: Antiviral activity against NNRTI-resistant HIV-1 harboring E138K mutant infected in human MT4 cells assessed as virus-induced cytopathicity incubated for 5 days by MTT assay; type: functional, organism-based; conditions: Human immunodeficiency virus 1, MT4, 120 h

Row | SMILES | EC50 [1] [µM] | EC50 [2] [µM] | CC50 at 120 h [3] [µM] | selectivity ratio [4] | EC50 [5] [µM]
1 | Cc1cc(C#N)cc(C)c1Oc1nc(Nc2ccc(C#N)nc2)ncc1C(N)=O | 0.128 | > 27.9 | 27.9 | 218 | 
2 | Cc1ccnc2c1NC(=O)c1cccnc1N2C1CC1 [NEVIRAPINE] | 0.151 | > 15 | > 15 |  | 0.168
3 | Cc1cc(C#N)cc(C)c1Oc1nc(Nc2ccc(CN3CCN(S(C)(=O)=O)CC3)cc2)ncc1C(N)=O | 1.77 | > 233 | > 233 | > 132 | 
4 | Cc1cc(C#N)cc(C)c1Oc1nc(NC2CCN(c3cccc(C(N)=O)c3)CC2)ncc1C(N)=O | 43.9 | > 257 | > 257 | > 6 | 
5 | O=C1Nc2ccc(Cl)cc2[C@@](C#CC2CC2)(C(F)(F)F)O1 [EFAVIRENZ] |  |  | > 6.35 |  | 
6 | Cc1cc(C#N)cc(C)c1Oc1nc(NC2CCN(c3cccc(C#N)c3)CC2)ncc1C(N)=O | 0.276 | 48.1 | 111 | 402 | 
7 | Cc1cc(C#N)cc(C)c1Oc1nc(Nc2ccc(CN3CCN(S(N)(=O)=O)CC3)cc2)ncc1C(N)=O | 1.55 | > 173 | 173 | 112 | 
8 | Cc1cc(C#N)cc(C)c1Oc1nc(Nc2ccc(CN3CCNCC3)cc2)ncc1C(N)=O | 13.4 | > 273 | > 273 | > 20 | 
9 | Cc1cc(C#N)cc(C)c1Oc1nc(Nc2ccc(C#N)cc2)nc(N)c1Br [ETRAVIRINE] |  | 0.061 | > 4.6 |  | 0.01
